Data taken from the supplement of paper PMC10307832.

Experiments:
Test in all cases: relative viability (nuclei count vs DMSO), 5 days (fraction); higher = more cells survive
Obatoclax + Linsitinib = compound: COC1=CC(c2cc3ccccc3[nH]2)=N/C1=C\c1[nH]c(C)cc1C [Obatoclax] + C[C@]1(O)C[C@@H](c2nc(-c3ccc4ccc(-c5ccccc5)nc4c3)c3c(N)nccn32)C1 [Linsitinib] (partner 1 µM)
How it was run: (§1)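 Relative viability equals treated-well nuclei counts divided by vehicle-well nuclei counts. Counts came from 4× images of lung cancer cell lines grown in 1536-well plates for 5 days after pin-tool dosing on the day after seeding. Dosing used one drug alone or a fixed anchor-drug dose plus five library-drug doses (not always all listed) in √10 steps, and values are medians of duplicate plates.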

Bortezomib + Crizotinib = compound: CC(C)C[C@H](NC(=O)[C@H](Cc1ccccc1)NC(=O)c1cnccn1)B(O)O [Bortezomib] + C[C@@H](Oc1cc(-c2cnn(C3CCNCC3)c2)cnc1N)c1c(Cl)ccc(F)c1Cl [Crizotinib] (partner 1 µM)
How it was run: as §1

Obatoclax + Olaparib = compound: COC1=CC(c2cc3ccccc3[nH]2)=N/C1=C\c1[nH]c(C)cc1C [Obatoclax] + O=C(c1cc(Cc2n[nH]c(=O)c3ccccc23)ccc1F)N1CCN(C(=O)C2CC2)CC1 [Olaparib] (partner 8 µM)
How it was run: as §1

Bortezomib + Linsitinib = compound: CC(C)C[C@H](NC(=O)[C@H](Cc1ccccc1)NC(=O)c1cnccn1)B(O)O [Bortezomib] + C[C@]1(O)C[C@@H](c2nc(-c3ccc4ccc(-c5ccccc5)nc4c3)c3c(N)nccn32)C1 [Linsitinib] (partner 1 µM)
How it was run: as §1

| Cell Line | relative viability (Obatoclax + Linsitinib; first compound 0.01 µM) | relative viability (Obatoclax + Linsitinib; first compound 0.03162 µM) | relative viability (Obatoclax + Linsitinib; first compound 0.3162 µM) | relative viability (Obatoclax + Linsitinib; first compound 1 µM) | relative viability (Bortezomib + Crizotinib; first compound 0.0002 µM) | relative viability (Bortezomib + Crizotinib; first compound 0.000632 µM) | relative viability (Bortezomib + Crizotinib; first compound 0.002 µM) | relative viability (Bortezomib + Crizotinib; first compound 0.006325 µM) | relative viability (Bortezomib + Crizotinib; first compound 0.02 µM) | relative viability (Obatoclax + Olaparib; first compound 0.01 µM) | relative viability (Obatoclax + Olaparib; first compound 0.03162 µM) | relative viability (Obatoclax + Olaparib; first compound 0.1 µM) | relative viability (Obatoclax + Olaparib; first compound 0.3162 µM) | relative viability (Obatoclax + Olaparib; first compound 1 µM) | relative viability (Bortezomib + Linsitinib; first compound 0.0002 µM) | relative viability (Bortezomib + Linsitinib; first compound 0.000632 µM) | relative viability (Bortezomib + Linsitinib; first compound 0.002 µM) | relative viability (Bortezomib + Linsitinib; first compound 0.006325 µM) | relative viability (Bortezomib + Linsitinib; first compound 0.02 µM) | relative viability (Obatoclax + Linsitinib; first compound 0.1 µM) |
| --- | --- | --- | --- | --- | --- | --- | --- | --- | --- | --- | --- | --- | --- | --- | --- | --- | --- | --- | --- | --- |
| NCI-H1734 | 0.808 | 0.799 | 0.728 | 0.749 | 0.737 | 0.71 | 0.491 | 0.106 | 0.0952 | 0.609 | 0.624 | 0.601 | 0.546 | 0.505 | 0.898 | 0.674 | 0.814 | 0.192 | 0.129 | – |
| NCI-H1915 | 1.07 | 1.06 | 1.07 | 1.06 | 0.877 | 0.909 | 0.694 | 0.435 | 0.0428 | 0.269 | 0.256 | 0.252 | 0.257 | 0.247 | 1.13 | 1.13 | 1.01 | 1.07 | 0.0602 | 1.09 |
| Calu-6 | 0.95 | 0.898 | 0.852 | 0.652 | 0.712 | 0.777 | 0.81 | 0.105 | 0.0708 | 0.538 | 0.565 | 0.611 | 0.534 | 0.239 | 0.938 | 0.775 | 0.961 | 0.214 | 0.0654 | 0.946 |
| NCI-H2009 | 1.12 | 1.2 | 1.02 | 0.262 | 0.992 | 1.06 | 0.956 | 0.329 | 0.0389 | 0.687 | 0.712 | 0.705 | 0.573 | 0.26 | 1.12 | 1.22 | 1.18 | 0.0695 | 0.058 | 1.19 |
| NCI-H1651 | 0.915 | 0.961 | 0.432 | 0.271 | 0.805 | 0.837 | 0.816 | 0.778 | 0.141 | 0.182 | 0.164 | 0.189 | 0.224 | 0.179 | 0.943 | 0.996 | 0.31 | 0.133 | 0.12 | 0.91 |
| HOP-62 | 0.784 | 1.07 | 1.13 | 0.933 | – | 1.01 | 0.35 | 0.235 | 0.048 | 0.292 | 0.352 | – | 0.434 | 0.405 | 1.04 | 1.02 | 0.352 | 0.465 | 0.052 | 0.94 |
| CAL-12T | 0.646 | 0.773 | 0.809 | 0.526 | 0.888 | 0.551 | 0.61 | 0.241 | 0.1 | 0.759 | 0.764 | 0.724 | 0.679 | 0.232 | 0.898 | 0.852 | 0.742 | 0.662 | 0.165 | 0.919 |
| LCLC-103H | 0.953 | 1.02 | 1 | 1.23 | 1.04 | 1.04 | 0.997 | 0.756 | 0.207 | 0.704 | 0.745 | 0.672 | 0.745 | 0.706 | 1.06 | 1.07 | 1.25 | 1.09 | 0.272 | 1.13 |
| NCI-H3122 | 1.01 | 1.02 | 0.97 | 1.01 | 0.252 | 0.264 | 0.287 | 0.275 | 0.182 | 0.655 | 0.517 | 0.642 | 0.613 | 0.678 | 1.01 | 1.04 | 1.09 | 0.606 | 0.179 | 1.04 |
| PC-14 | 0.911 | 1.01 | 0.902 | 0.58 | 0.935 | 0.935 | 0.947 | 0.359 | 0.0821 | 0.285 | 0.306 | 0.14 | 0.0684 | 0.081 | 0.941 | 0.917 | 0.974 | 0.152 | 0.0932 | 0.892 |
| BEN | 0.948 | 0.828 | 0.948 | 0.796 | 0.78 | 0.821 | 0.58 | 0.447 | 0.134 | 1.03 | 1.04 | 0.864 | 0.914 | 0.942 | 0.814 | 0.927 | 0.763 | 0.592 | 0.173 | 0.913 |
| EPLC-272H | 1.13 | 1.22 | 1.03 | 1.2 | – | – | 0.972 | 0.584 | 0.07 | 0.796 | 0.889 | 0.756 | 0.263 | 0.215 | – | – | 1.26 | 1.29 | 0.109 | 1.15 |
| LK-2 | 0.524 | 0.383 | 0.521 | 0.662 | – | 0.243 | 0.277 | 0.207 | 0.222 | 0.806 | 0.81 | 0.768 | 0.695 | 0.762 | 0.409 | 0.551 | 0.353 | 0.17 | 0.142 | 0.826 |
| NCI-H1299 | 0.975 | 0.837 | 0.948 | 0.72 | 0.943 | 0.965 | 0.969 | 0.39 | 0.152 | 0.946 | 0.92 | 0.976 | 0.969 | 0.331 | 1 | 0.917 | 1.1 | 0.452 | 0.118 | 0.925 |
| NCI-H1703 | 0.613 | 0.539 | 0.917 | 0.589 | 0.561 | 0.495 | 0.133 | 0.101 | 0.081 | 0.18 | 0.403 | 0.393 | 0.524 | 0.246 | 1.07 | 0.438 | 0.252 | 0.0867 | 0.0799 | 0.407 |
| UMC-11 | 1.04 | 0.875 | 0.81 | 0.885 | 0.503 | 0.63 | 0.591 | 0.225 | 0.0917 | 0.316 | 0.448 | 0.43 | 0.415 | 0.289 | 0.937 | 0.974 | 0.936 | 0.375 | 0.176 | 0.981 |
| HCC-827 | 0.904 | 1.01 | 0.866 | 0.914 | 0.915 | 0.837 | 0.783 | 0.251 | 0.116 | 0.594 | 0.542 | 0.628 | 0.581 | 0.221 | 0.913 | 0.949 | 0.821 | 0.896 | 0.141 | 0.895 |
| NCI-H1993 | 0.754 | 0.772 | 0.737 | 0.623 | 0.876 | 0.974 | 0.847 | 0.342 | 0.506 | 0.95 | 1.15 | 0.984 | 1.01 | 1.11 | 0.683 | 0.766 | 0.733 | 0.499 | 0.58 | 0.712 |
| NCI-H647 | 1.14 | 1.13 | 0.317 | 0.254 | 0.993 | 0.954 | 0.627 | 0.0302 | 0.0195 | 0.633 | 0.539 | 0.547 | 0.174 | 0.067 | 1.09 | 1.28 | 1.12 | 0.0274 | 0.0402 | 1.11 |
| NCI-H460 | 0.719 | 0.864 | 0.0258 | 0.0195 | 0.979 | 0.832 | 0.927 | 0.0481 | 0.0102 | 0.422 | 0.408 | – | 0.339 | 0.14 | 0.718 | 0.772 | 0.91 | 0.0249 | 0.0133 | 0.582 |
| EMC-BAC-2 | 0.796 | 0.817 | 0.797 | 0.875 | 0.71 | 0.692 | 0.766 | 0.199 | 0.113 | 0.491 | 0.514 | 0.418 | 0.478 | 0.43 | 0.828 | 0.805 | 0.786 | 0.46 | 0.132 | 0.827 |
| NCI-H23 | 0.588 | 0.598 | 0.606 | 0.598 | – | 0.491 | 0.417 | 0.128 | 0.0919 | 0.288 | 0.369 | 0.398 | 0.28 | 0.206 | – | 0.574 | 0.586 | 0.276 | 0.114 | 0.647 |
| A-427 | 1.07 | 0.775 | 1.15 | 1.13 | 0.867 | 0.859 | 0.866 | 0.521 | 0.0943 | 0.82 | 0.706 | 0.559 | 0.775 | 0.416 | 1.06 | 1.03 | 1.1 | 1.16 | 0.285 | 1.11 |
| ABC-1 | 0.619 | 0.768 | 0.928 | 0.372 | 1.1 | 0.693 | 0.22 | 0.178 | 0.195 | 1.08 | 0.95 | 0.776 | 0.799 | 0.566 | 0.806 | 0.688 | 0.308 | 0.257 | 0.234 | 0.815 |
| IA-LM | 0.457 | 0.505 | 0.465 | 0.0667 | 0.996 | 0.699 | 0.559 | 0.0382 | 0.0338 | 0.832 | 0.881 | 0.775 | 0.782 | 0.114 | 0.907 | 0.682 | 0.577 | 0.161 | 0.0151 | 0.5 |
| NCI-H322M | 0.943 | 0.958 | 0.893 | 0.89 | 0.977 | – | 0.99 | 0.985 | 0.36 | 0.823 | 0.739 | 0.961 | 0.758 | 0.724 | 0.906 | – | 0.999 | 0.831 | 0.294 | 0.941 |
| COR-L23 | 0.848 | 1 | 0.29 | 0.173 | 0.669 | 0.581 | 0.595 | 0.0447 | 0.0472 | 0.37 | 0.352 | 0.354 | 0.248 | 0.156 | 0.994 | 0.828 | 0.495 | 0.0469 | 0.0499 | 0.767 |
